From patent US12161646B2, “Polycyclic carbamoylpyridone derivatives, pharmaceutical compositions and use thereof” (JIAXING ANDICON BIOTECH CO., LTD., priority 2018, dated 2024)

What was measured:
[1] = Detection of toxicity of samples to MDCK cells (alamarBlue); assay type: cell-based; details: dog, 48 hours incubation
Description: Example 9: Detection of Toxicity of Samples to MDCK Cells
The experiment uses alamarBlue® (Invitrogen) kit to detect the toxic effects of drugs on cells.
Experimental principle: The experiment uses alamarBlue® (Invitrogen) kit to detect the toxic effects of drugs on cells. AlamarBlue® is a redox indicator that produces changes in absorbance and fluorescent signals based on cellular metabolic activity. AlamarBlue® is freely soluble in water. After its oxidized form enters cells, it will be reduced by mitochondrial enzymes to produce measurable fluorescence and color changes. It is used for quantitative analysis of cell viability and cell proliferation, and for in vitro cytotoxicity studies. Normal cells with metabolic activity can convert the reagents to produce strong fluorescence and color changes.
Experimental procedure: MDCK cells were seeded in a 96-well cell culture plate, and cultured till cell attachment for later use. The drug was serially 3 times diluted from 2 times the highest test concentration to 8 gradients. The drug was added to the cells and cultured in a CO2 incubator at 37° C. […] The toxicity of the drug to cells is inversely proportional to the activity of the cells and is expressed as the activity of the cells. cell activity (%)=(drug group-blank control)/(cell control-blank control)*100 Calculation formula: […]

Bioavailability test = assay type: in vivo, SD rats; details: for BA%: SD rats, from AUC of oral and intravenous administration; for half-life: SD, rat, in vivo, iv
Protocol: Example 6: Bioavailability Test
<Experimental Materials and Methods for Oral Absorption Research>
• (1) Animals used: SD rats are used. • (2) Feeding conditions: SD rats were allowed to take in solid feed and purified water freely. • (3) Dosing amount and grouping setting: Oral or intravenous administration were performed at prescribed dosage. The groups were set as follows. (the dosage of each compound varied)
Oral administration 1 to 30 mg/kg (n=5 to 6)
Intravenous administration 0.5 to 10 mg/kg (n=5 to 6) • (4) Preparation of dosing solution: suspension was used for oral administration through intragastric administration. Solution was used for intravenous administration through tail vein. • (5) Evaluation items: Blood was collected overtime, and the concentrations of the drugs in plasma were determined by LC/MS/MS. • (6) Statistical analysis: For concentration changes in plasma, the area under the concentration-time curve (AUC) in plasma was calculated using the nonlinear least squares method, and the bioavailability (BA) was calculated from the AUC in the oral administration group and the intravenous administration group, and the elimination half-life of drug concentration in plasma through intravenous administration was counted.

influenza virus = test: CPE suppression effect confirmation test; assay type: cell-based; details: for CPE inhibitory effect compared with S-033188A: relative to S-033188A; for EC50: unidentified influenza virus, 72 h, read-out: CPE_EC50
[2] = tested on: A/WS/33, A/Victoria/3/75 or B/Maryland/1/59; assay type: in vivo, BALB/cAnNCrlCrlj mice; details: single oral administration, 50% lethal suppression, 14 days after infection

| Structure (SMILES) | CC50 at 48 h [1] [µM] | BA% (Bioavailability test) [%] | half-life (Bioavailability test) [h] | CPE inhibitory effect compared with S-033188A (influenza virus) | EC50 (influenza virus) [µM] | ED50 [2] [mg/kg/day] |
| --- | --- | --- | --- | --- | --- | --- |
| [2H][C@]1(N2[C@@H]3COCCN3C(=O)c3c(O)c(=O)ccn32)c2ccccc2SCc2c1ccc(F)c2F [1A] | 48.3 | 7.1 | 4 | twice | 0.00068 | – |
| [2H][C@]1(N2[C@@H]3COCCN3C(=O)c3c(OCOC(=O)OC)c(=O)ccn32)c2ccccc2SCc2c1ccc(F)c2F [1B] | – | 18.4 | – | – | – | 0.41 |
| [2H]C1([2H])Sc2ccccc2[C@@H](N2[C@@H]3COCCN3C(=O)c3c(O)c(=O)ccn32)c2ccc(F)c(F)c21 [2A] | – | 5.0 | 5 | – | – | – |
| [2H]C1([2H])Sc2ccccc2[C@@H](N2[C@@H]3COCCN3C(=O)c3c(OCOC(=O)OC)c(=O)ccn32)c2ccc(F)c(F)c21 [2B] | – | 15.9 | – | – | – | 0.71 |
| [2H]C1([2H])Sc2ccccc2[C@]([2H])(N2[C@@H]3COCCN3C(=O)c3c(O)c(=O)ccn32)c2ccc(F)c(F)c21 [3A] | – | 7.8 | 5.2 | twice | 0.0006 | – |
| [2H]C1([2H])Sc2ccccc2[C@]([2H])(N2[C@@H]3COCCN3C(=O)c3c(OCOC(=O)OC)c(=O)ccn32)c2ccc(F)c(F)c21 [3B] | – | 19.8 | – | – | – | 0.33 |
| O=C1c2c(O)c(=O)ccn2N([C@@H]2c3ccccc3SCc3c2ccc(F)c3F)[C@@H]2COCCN12 [S-033188A, reference compound] | 29.9 | 4.7 | 3.8 | – | – | – |
| COC(=O)OCOc1c2n(ccc1=O)N([C@@H]1c3ccccc3SCc3c1ccc(F)c3F)[C@@H]1COCCN1C2=O [S-033188B, reference compound] | – | 15.3 | – | – | – | 0.78 |
